Source: US20110190503A1, “Thiazolopyridin-2-yloxy-phenyl and thiazolopyrazin-2-yloxy-phenyl amines as modulators of leukotriene A4 hydrolase” (Janssen Pharmaceutical NV, priority 2008, published 2011)
pIC50: −log10 of the molar value. Structures can show the parent of a compound that is named as a salt. Blank lines part the entries; values can stand above or below the compound they belong to.

Experiments:
[1] = tested on: airway hyperresponsiveness; conditions: primate model; cited from earlier work
[2] = target: T1, recombinant human LTA4 hydrolase (rhLTA4H) (Homo sapiens, UniProt P09960); assay: Recombinant human LTA4 hydrolase assay for LTA4 hydrolase inhibitor activity; type: biochemical; conditions: rhLTA4H, LTA4 substrate, LTB4 by immunoassay; single determination or average; read-out: IC50
T1 construct: made in house; host or cells: Spodoptera frugiperda (Sf-9) cells, recombinant baculovirus (pFastBac1)
T1 sequence (P09960 1-611): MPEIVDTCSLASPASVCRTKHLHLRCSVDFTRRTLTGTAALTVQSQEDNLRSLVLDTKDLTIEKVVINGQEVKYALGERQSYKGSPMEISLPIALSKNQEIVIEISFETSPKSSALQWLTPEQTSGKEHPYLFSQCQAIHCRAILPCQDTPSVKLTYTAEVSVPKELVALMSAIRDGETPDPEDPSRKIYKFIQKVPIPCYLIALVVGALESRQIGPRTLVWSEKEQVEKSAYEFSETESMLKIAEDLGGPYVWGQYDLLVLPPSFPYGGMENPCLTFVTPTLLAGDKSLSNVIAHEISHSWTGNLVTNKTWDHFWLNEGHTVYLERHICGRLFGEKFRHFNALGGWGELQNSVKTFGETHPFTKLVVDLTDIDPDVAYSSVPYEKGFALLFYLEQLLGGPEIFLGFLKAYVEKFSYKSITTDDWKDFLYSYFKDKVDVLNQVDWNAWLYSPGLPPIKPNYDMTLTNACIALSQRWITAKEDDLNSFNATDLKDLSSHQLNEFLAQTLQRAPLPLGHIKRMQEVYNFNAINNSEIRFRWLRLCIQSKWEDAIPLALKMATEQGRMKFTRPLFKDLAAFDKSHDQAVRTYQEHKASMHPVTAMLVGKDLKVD
Method in brief: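 Recombinant human LTA4H from baculovirus-infected Sf-9 cells (10 ng) pre-incubated 10 min at rt with compound (10% DMSO in dilutions), then reacted with free-acid LTA4 for 30 min at rt. LTB4 measured by ELISA; IC50 by nonlinear regression. Values are single determinations or averages.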

[3] = tested on: LTB4 production by calcium ionophore-stimulated murine blood; assay: LTB4 production by calcium ionophore-stimulated murine blood for LTA4H inhibitor activity; type: cell-based, CD-1 mice; conditions: Mus musculus; murine blood diluted 1 in 15, calcium ionophore A23187, LTB4 by immunoassay; read-out: IC50
Method in brief: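 Heparinized CD-1 mouse blood pre-incubated with compound 15 min at 37° C, then stimulated with calcium ionophore A23187 (7 μg/mL final) for 30 min. LTB4 in supernatant measured by enzyme immunoassay; values are single or averaged determinations, with SD for n≥3.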

[4] = tested on: LTB4 production by calcium ionophore-stimulated human blood; assay: LTB4 production by calcium ionophore-stimulated human blood for LTA4H inhibitor activity; type: cell-based; conditions: human blood diluted 1:1, calcium ionophore A23187, LTB4 by immunoassay; n in parentheses; read-out: IC50
Protocol: Assay 3: LTB4 Production by Calcium Ionophore-Stimulated Human Blood for LTA4H Inhibitor Activity
Human blood was collected from healthy donors in heparin-containing syringes. The blood was diluted 1:1 with RPMI-1640 medium, and 200-μL aliquots of the diluted blood were added to wells of a 96-well microtiter plate. LTA4H inhibitor test compounds were prepared at different concentrations in RPMI-1640 medium containing 1% DMSO, and 20 μL of each test solution was added to a well containing diluted whole blood (final DMSO concentration of 0.1%). After the microtiter plate contents were incubated for 15 min at 37° C. in a humidified incubator, calcium ionophore A23187 (Sigma Chemical Co., St. Louis, Mo.) was added to each sample well (final concentration=7 μg/mL). The incubation was continued under the same conditions for an additional 30 min to allow LTB4 formation. The reaction was terminated by centrifugation (833×g, 10 min at 4° C.), and supernatants were analyzed for LTB4 by a commercially available enzyme-linked immunoassay (Cayman Chemical Co.) according to the manufacturer's instructions. Positive controls, under essentially identical conditions but without addition of an inhibitor compound, and negative unstimulated controls, containing all assay components except calcium ionophore, were routinely run in each experiment. IC50 values for compounds tested in this assay were determined by nonlinear regression of the activity data at different compound concentrations using Graphpad Prism 4.0, one site binding competition, and are presented in Table 3. The number of determinations made is indicated in parentheses following each value.

[5] = tested on: ionophore-induced LTB4 production; conditions: oral administration; cited from earlier work
[6] = tested on: ionophore-induced LTB4 production; conditions: oral administration; cited from earlier work; remark: listed apart in the source
colitis symptoms = conditions: eight weeks of treatment, cotton top tamarins; cited from earlier work
atopic dermatitis = conditions: small, open-label clinical trials; cited from earlier work
pruritus = conditions: Sjogren-Larsson syndrome patients; cited from earlier work
[7] = tested on: bronchial hyperresponsiveness; conditions: human asthma; cited from earlier work
[8] = severe asthmatics; cited from earlier work

SMILES: O=C(O)C1(c2ccc3c(c2)OC[C@H](Cc2ccc(-c4ccccc4)cc2)[C@H]3O)CCCC1 [CP-105,696]
airway hyperresponsiveness induced by multiple antigen challenges [1]: reduced airway hyperresponsiveness

pIC50 [2]: 8.52 | pIC50 [3]: 7.54 | pIC50 [4]: 8.00
SMILES: NC(=O)N1C[C@@H]2CC[C@H]1CN2Cc1ccc(Oc2nc3ncccc3s2)cc1 [Example 293, (1S,4S)-5-[4-([1,3]Thiazolo[4,5-b]pyridin-2-yloxy)benzyl]-2,5-diazabicyclo[2.2.2]octane-2-carboxamide formate]

SMILES: CN(CCCOc1ccc(Cc2ccccc2)cc1)CCC(=O)O.Cl [SC57461]
inhibition of ionophore-induced LTB4 production in mouse blood ex vivo [5]: caused inhibition | inhibition of ionophore-induced LTB4 production in rat peritoneum in vivo [6]: caused inhibition | colitis symptoms (colitis symptoms): significantly improved

SMILES: CC(c1cc2ccccc2s1)N(O)C(N)=O (centres unmarked) [zileuton]
effect in atopic dermatitis (atopic dermatitis): beneficial effects | pruritus (pruritus): relieving the pruritus | bronchial hyperresponsiveness [7]: reduction of bronchial hyperresponsiveness | quality of life [8]: significantly improve quality of life
